Earlier results, collected in patent US10352931B2 (priority 2013, dated 2019).

Biological target: glutamate carboxypeptidase II (Homo sapiens, UniProt Q04609)
Details: examples of inhibitors, Table 1

Chain of glutamate carboxypeptidase II (Q04609 whole entry, species assumed): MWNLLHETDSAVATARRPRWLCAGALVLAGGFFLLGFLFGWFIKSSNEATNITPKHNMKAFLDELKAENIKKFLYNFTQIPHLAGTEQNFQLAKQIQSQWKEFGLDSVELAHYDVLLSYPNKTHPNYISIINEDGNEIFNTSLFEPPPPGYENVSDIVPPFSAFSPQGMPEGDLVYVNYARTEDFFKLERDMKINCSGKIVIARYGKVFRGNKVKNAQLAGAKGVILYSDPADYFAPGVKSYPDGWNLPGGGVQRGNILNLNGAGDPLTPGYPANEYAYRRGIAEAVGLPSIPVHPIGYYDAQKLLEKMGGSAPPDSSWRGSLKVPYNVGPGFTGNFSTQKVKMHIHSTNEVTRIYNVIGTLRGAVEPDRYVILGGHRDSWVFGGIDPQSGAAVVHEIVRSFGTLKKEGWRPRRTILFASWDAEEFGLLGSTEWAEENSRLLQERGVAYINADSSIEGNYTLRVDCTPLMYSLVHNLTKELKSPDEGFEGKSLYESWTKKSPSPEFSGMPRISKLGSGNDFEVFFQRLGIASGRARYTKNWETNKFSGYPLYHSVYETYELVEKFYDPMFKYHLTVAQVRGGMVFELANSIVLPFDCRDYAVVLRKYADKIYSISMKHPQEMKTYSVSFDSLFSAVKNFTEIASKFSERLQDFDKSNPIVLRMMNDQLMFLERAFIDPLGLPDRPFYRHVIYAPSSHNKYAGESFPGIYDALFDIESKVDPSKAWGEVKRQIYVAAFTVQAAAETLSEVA

Substance: (S)-2-(hydroxypentafluorophenylmethyl-phosphinoylmethyl)pentanedioic acid
- IC50: 34 nM
